Article PMC5218480 (PLoS ONE, 2017)

Tested on: MV-4-11 cells
Test: Gene expression microarray analysis (Affymetrix PrimeView) and GSEA
Type: cell-based, human
Set-up: RFU PODN (11730768_x_at) / Fold change /veh PODN (11730768_x_at) / RFU LINC00158 (11744669_a_at) / Fold change /veh LINC00158 (11744669_a_at) / RFU DUSP10 (11751237_a_at) / Fold change /veh DUSP10 (11751237_a_at) / RFU ID3 (11757404_x_at) / Fold change /veh ID3 (11757404_x_at) / RFU PLEKHG5 (11737974_s_at) / Fold change /veh PLEKHG5 (11737974_s_at) / RFU LRRC4B (11730491_at) / Fold change /veh LRRC4B (11730491_at) / RFU GIMAP4 (11747438_a_at) / Fold change /veh GIMAP4 (11747438_a_at) / RFU KRT8 (11758183_x_at) / Fold change /veh KRT8 (11758183_x_at) / RFU CNN1 (11734310_a_at) / Fold change /veh CNN1 (11734310_a_at) / RFU VPS37D (11726825_at) / Fold change /veh VPS37D (11726825_at) / RFU C10orf10 (11716522_x_at) / Fold change /veh C10orf10 (11716522_x_at) / RFU KIR2DL2 /// KIR2DL4 /// KIR2DL5A /// KIR2DL5B /// KIR2DS1 /// KIR2DS2 /// KIR2DS3 /// KIR2DS4 /// KIR3DL3 /// KIR3DL3 /// KIR3DS1 (11738374_at) / Fold change /veh KIR2DL2 /// KIR2DL4 /// KIR2DL5A /// KIR2DL5B /// KIR2DS1 /// KIR2DS2 /// KIR2DS3 /// KIR2DS4 /// KIR3DL3 /// KIR3DL3 /// KIR3DS1 (11738374_at) / RFU C1QL1 (11718748_at) / Fold change /veh C1QL1 (11718748_at) / RFU TMPRSS4 (11747572_a_at) / Fold change /veh TMPRSS4 (11747572_a_at) / RFU HAMP (11756126_x_at) / Fold change /veh HAMP (11756126_x_at) / RFU RNFT2 (11725882_a_at) / Fold change /veh RNFT2 (11725882_a_at) / RFU NR4A2 (11747474_a_at) / Fold change /veh NR4A2 (11747474_a_at) / RFU ABCC12 (11746883_a_at) / Fold change /veh ABCC12 (11746883_a_at) / RFU TMEM136 (11760407_x_at) / Fold change /veh TMEM136 (11760407_x_at) / RFU CLDN22 /// WWC2 (11732394_at) / Fold change /veh CLDN22 /// WWC2 (11732394_at) / RFU HLA-DPB1 (11760878_x_at) / Fold change /veh HLA-DPB1 (11760878_x_at) / RFU SPINT1 (11716480_a_at) / Fold change /veh SPINT1 (11716480_a_at) / RFU GAP43 (11754022_s_at) / Fold change /veh GAP43 (11754022_s_at) / RFU A4GNT (11735810_at) / Fold change /veh A4GNT (11735810_at) / RFU PRB3 (11715151_x_at) / Fold change /veh PRB3 (11715151_x_at) / RFU TUBB4B (11761932_at) / Fold change /veh TUBB4B (11761932_at) / RFU CAPN14 (11732068_a_at) / Fold change /veh CAPN14 (11732068_a_at) / RFU TMCC2 (11721928_a_at) / Fold change /veh TMCC2 (11721928_a_at) / RFU IRGQ (11745062_a_at) / Fold change /veh IRGQ (11745062_a_at) / RFU FAM174B (11720279_a_at) / Fold change /veh FAM174B (11720279_a_at) / RFU TMPRSS4 (11748680_a_at) / Fold change /veh TMPRSS4 (11748680_a_at) / RFU FAM212B (11763350_a_at) / Fold change /veh FAM212B (11763350_a_at) / RFU PLEKHG5 (11743358_a_at) / Fold change /veh PLEKHG5 (11743358_a_at) / RFU ZSCAN30 (11745921_a_at) / Fold change /veh ZSCAN30 (11745921_a_at) / RFU CMKLR1 (11741424_a_at) / Fold change /veh CMKLR1 (11741424_a_at) / RFU LOC101060620 /// MAPK8IP1 (11723275_at) / Fold change /veh LOC101060620 /// MAPK8IP1 (11723275_at) / RFU SPTSSB (11747773_x_at) / Fold change /veh SPTSSB (11747773_x_at) / RFU PRSS12 (11739890_at) / Fold change /veh PRSS12 (11739890_at) / RFU BIN1 (11741810_x_at) / Fold change /veh BIN1 (11741810_x_at) / RFU WNT11 (11732464_a_at) / Fold change /veh WNT11 (11732464_a_at) / RFU C10orf10 (11716521_a_at) / Fold change /veh C10orf10 (11716521_a_at) / RFU C5orf56 (11738089_at) / Fold change /veh C5orf56 (11738089_at) / RFU CYB561 (11721691_x_at) / Fold change /veh CYB561 (11721691_x_at) / RFU ANKRD19P (11752326_a_at) / Fold change /veh ANKRD19P (11752326_a_at) / RFU OR2T12 /// OR2T33 /// OR2T8 (11738714_s_at) / Fold change /veh OR2T12 /// OR2T33 /// OR2T8 (11738714_s_at) / RFU VCAN (11748164_a_at) / Fold change /veh VCAN (11748164_a_at) / RFU JSRP1 (11732532_at) / Fold change /veh JSRP1 (11732532_at) / RFU KRTAP10-11 (11738290_x_at) / Fold change /veh KRTAP10-11 (11738290_x_at) / RFU MYO3A (11730013_a_at) / Fold change /veh MYO3A (11730013_a_at) / RFU EBF3 (11725865_a_at) / Fold change /veh EBF3 (11725865_a_at) / RFU CAMK2N1 (11719241_x_at) / Fold change /veh CAMK2N1 (11719241_x_at) / RFU C5orf56 (11738088_a_at) / Fold change /veh C5orf56 (11738088_a_at) / RFU OLFML3 (11715873_a_at) / Fold change /veh OLFML3 (11715873_a_at) / RFU LOC100653217 /// NTM (11731650_a_at) / Fold change /veh LOC100653217 /// NTM (11731650_a_at) / RFU MAPK11 (11762145_a_at) / Fold change /veh MAPK11 (11762145_a_at) / RFU FIZ1 (11724087_x_at) / Fold change /veh FIZ1 (11724087_x_at) / RFU OASL (11726364_x_at) / Fold change /veh OASL (11726364_x_at) / RFU SOX15 (11748057_x_at) / Fold change /veh SOX15 (11748057_x_at) / RFU CD79A (11719716_a_at) / Fold change /veh CD79A (11719716_a_at) / RFU HIST1H1D (11736915_at) / Fold change /veh HIST1H1D (11736915_at) / RFU CASKIN2 (11723855_a_at) / Fold change /veh CASKIN2 (11723855_a_at) / RFU LOC730098 (11760151_x_at) / Fold change /veh LOC730098 (11760151_x_at) / RFU OR4N2 (11742367_at) / Fold change /veh OR4N2 (11742367_at) / RFU PRRT2 (11749266_a_at) / Fold change /veh PRRT2 (11749266_a_at) / RFU SNX32 (11753110_a_at) / Fold change /veh SNX32 (11753110_a_at) / RFU CDHR5 (11726645_a_at) / Fold change /veh CDHR5 (11726645_a_at) / RFU RCAN1 (11760418_a_at) / Fold change /veh RCAN1 (11760418_a_at) / RFU FAM167A (11723789_a_at) / Fold change /veh FAM167A (11723789_a_at) / RFU FAM26E (11764081_at) / Fold change /veh FAM26E (11764081_at) / RFU ISYNA1 (11749810_s_at) / Fold change /veh ISYNA1 (11749810_s_at) / RFU ACY1 (11761880_at) / Fold change /veh ACY1 (11761880_at) / RFU 11764098_at / Fold change /veh 11764098_at / RFU SAMD14 (11745864_x_at) / Fold change /veh SAMD14 (11745864_x_at) / RFU NPB (11741838_a_at) / Fold change /veh NPB (11741838_a_at) / RFU TMPRSS6 (11731388_a_at) / Fold change /veh TMPRSS6 (11731388_a_at) / RFU KRTAP10-2 (11738614_at) / Fold change /veh KRTAP10-2 (11738614_at) / RFU ARHGAP8 /// PRR5-ARHGAP8 (11727945_x_at) / Fold change /veh ARHGAP8 /// PRR5-ARHGAP8 (11727945_x_at) / RFU KRTAP5-7 /// NADSYN1 (11734609_at) / Fold change /veh KRTAP5-7 /// NADSYN1 (11734609_at) / RFU RASL12 (11751679_a_at) / Fold change /veh RASL12 (11751679_a_at) / RFU CDKN2B (11736163_a_at) / Fold change /veh CDKN2B (11736163_a_at) / RFU PRF1 (11729649_at) / Fold change /veh PRF1 (11729649_at) / RFU, ZNF638 /// ZNF638-IT1 / Fold change vs veh, ZNF638 /// ZNF638-IT1 / RFU, PANK3 / Fold change vs veh, PANK3 / RFU, SH3YL1 / Fold change vs veh, SH3YL1 / RFU, ZEB2 / Fold change vs veh, ZEB2 / RFU, NRIP1 / Fold change vs veh, NRIP1 / RFU, PTTG1IP / Fold change vs veh, PTTG1IP / RFU, CAPN2 / Fold change vs veh, CAPN2 / RFU, MED14 / Fold change vs veh, MED14 / RFU, SNORA58 / Fold change vs veh, SNORA58 / RFU, C1orf63 / Fold change vs veh, C1orf63 / RFU, LRRFIP1 / Fold change vs veh, LRRFIP1 / RFU, NDUFAF7 / Fold change vs veh, NDUFAF7 / RFU, SLC12A2 / Fold change vs veh, SLC12A2 / RFU, IBTK / Fold change vs veh, IBTK / RFU, ESF1 / Fold change vs veh, ESF1 / Fold change vs veh, TMEM50B / RFU, TAOK1 / Fold change vs veh, TAOK1 / RFU, ACBD3 / Fold change vs veh, ACBD3 / RFU, TMA16 / Fold change vs veh, TMA16 / RFU, RWDD3 / Fold change vs veh, RWDD3 / RFU, BCAT1 / Fold change vs veh, BCAT1 / RFU, EDEM3 / Fold change vs veh, EDEM3 / RFU, TMEM33 / Fold change vs veh, TMEM33 / RFU, WDR75 / Fold change vs veh, WDR75 / RFU, AHCTF1 / Fold change vs veh, AHCTF1 / RFU, TFRC / Fold change vs veh, TFRC / RFU, ZDHHC17 / Fold change vs veh, ZDHHC17 / RFU, NOM1 / Fold change vs veh, NOM1 / RFU, ARL8B / Fold change vs veh, ARL8B / RFU, ZBTB11 / Fold change vs veh, ZBTB11 / RFU, TAMM41 / Fold change vs veh, TAMM41 / RFU, KIAA1704 /// LOC100996395 / Fold change vs veh, KIAA1704 /// LOC100996395 / RFU, ING1 / Fold change vs veh, ING1 / RFU, TRMT61B / Fold change vs veh, TRMT61B / RFU, FUBP3 / Fold change vs veh, FUBP3 / RFU, TP53 / Fold change vs veh, TP53 / RFU, TNKS2 / Fold change vs veh, TNKS2 / RFU, ZFP14 / Fold change vs veh, ZFP14 / RFU, ACTR2 / Fold change vs veh, ACTR2 / RFU, PPP3R1 / Fold change vs veh, PPP3R1 / RFU, PIK3R1 / Fold change vs veh, PIK3R1 / RFU, HNRNPA1 / Fold change vs veh, HNRNPA1 / RFU, RNF170 / Fold change vs veh, RNF170 / RFU, ZNF28 / Fold change vs veh, ZNF28 / RFU, RNGTT / Fold change vs veh, RNGTT / RFU, OGT / Fold change vs veh, OGT / RFU, BRD1 / Fold change vs veh, BRD1 / RFU, MARS / Fold change vs veh, MARS / RFU, ZNF655 / Fold change vs veh, ZNF655 / RFU, FAHD1 / Fold change vs veh, FAHD1 / RFU, BDP1 / Fold change vs veh, BDP1 / RFU, LRRCC1 / Fold change vs veh, LRRCC1 / RFU, ARID1A / Fold change vs veh, ARID1A / RFU, ZNF146 / Fold change vs veh, ZNF146 / RFU, ZNF330 / Fold change vs veh, ZNF330 / RFU, GPN3 / Fold change vs veh, GPN3 / RFU, C9orf123 / Fold change vs veh, C9orf123 / RFU, N4BP2L2 / Fold change vs veh, N4BP2L2 / RFU, ARFIP1 / Fold change vs veh, ARFIP1 / RFU, FAM179B / Fold change vs veh, FAM179B / RFU, BCL10 / Fold change vs veh, BCL10 / RFU, UHRF1BP1L / Fold change vs veh, UHRF1BP1L / RFU, BET1 / Fold change vs veh, BET1 / RFU, CNOT2 / Fold change vs veh, CNOT2 / RFU, ZNF268 / Fold change vs veh, ZNF268 / Fold change vs veh, ZNF507 / RFU, DGCR2 / Fold change vs veh, DGCR2 / RFU, WDSUB1 / Fold change vs veh, WDSUB1 / Fold change vs veh, HSP90B1 /// MIR3652 / RFU, ADSS / Fold change vs veh, ADSS / RFU, GK / Fold change vs veh, GK / RFU, ZNF148 / Fold change vs veh, ZNF148 / RFU, TAF9 / Fold change vs veh, TAF9 / RFU, SLC1A5 / Fold change vs veh, SLC1A5 / RFU, SLMO2 / Fold change vs veh, SLMO2 / RFU, ABCC4 / Fold change vs veh, ABCC4 / RFU, LOC101060439 /// RAP1B / Fold change vs veh, LOC101060439 /// RAP1B / RFU, RFX7 / Fold change vs veh, RFX7 / RFU, GTPBP10 / Fold change vs veh, GTPBP10 / RFU, CNEP1R1 / Fold change vs veh, CNEP1R1 / RFU, BIVM-ERCC5 /// ERCC5 / Fold change vs veh, BIVM-ERCC5 /// ERCC5 / RFU, ILF3 / Fold change vs veh, ILF3 / RFU 11762660_at / Fold change /veh 11762660_at / RFU VCAN (11757783_s_at) / Fold change /veh VCAN (11757783_s_at) / RFU DDX43 (11728927_at) / Fold change /veh DDX43 (11728927_at) / RFU KRT8 (11758188_x_at) / Fold change /veh KRT8 (11758188_x_at) / RFU NKD1 (11759106_at) / Fold change /veh NKD1 (11759106_at) / RFU SRD5A1 (11742802_a_at) / Fold change /veh SRD5A1 (11742802_a_at) / RFU TPSAB1 /// TPSB2 (11721975_s_at) / Fold change /veh TPSAB1 /// TPSB2 (11721975_s_at) / RFU GSTM3 (11746129_a_at) / Fold change /veh GSTM3 (11746129_a_at) / RFU IL23R (11737362_x_at) / Fold change /veh IL23R (11737362_x_at) / RFU TMEM51 (11727254_a_at) / Fold change /veh TMEM51 (11727254_a_at) / RFU PIWIL2 (11732686_x_at) / Fold change /veh PIWIL2 (11732686_x_at) / RFU ORM1 (11744905_x_at) / Fold change /veh ORM1 (11744905_x_at) / RFU CCDC152 (11743942_at) / Fold change /veh CCDC152 (11743942_at) / RFU ECM1 (11717891_a_at) / Fold change /veh ECM1 (11717891_a_at) / RFU IL23R (11748794_a_at) / Fold change /veh IL23R (11748794_a_at) / RFU TNFAIP8L3 (11732012_x_at) / Fold change /veh TNFAIP8L3 (11732012_x_at) / RFU MBOAT4 (11741988_at) / Fold change /veh MBOAT4 (11741988_at) / RFU 11764193_at / Fold change /veh 11764193_at / RFU TMEM53 (11763286_at) / Fold change /veh TMEM53 (11763286_at) / RFU MAGEB2 (11727129_at) / Fold change /veh MAGEB2 (11727129_at) / RFU TMEM200A (11744735_a_at) / Fold change /veh TMEM200A (11744735_a_at) / RFU CCDC152 (11751479_a_at) / Fold change /veh CCDC152 (11751479_a_at) / RFU FAM211A (11726209_a_at) / Fold change /veh FAM211A (11726209_a_at) / RFU RGS16 (11746705_a_at) / Fold change /veh RGS16 (11746705_a_at) / RFU VCAN (11755009_s_at) / Fold change /veh VCAN (11755009_s_at) / RFU RHOB (11743442_s_at) / Fold change /veh RHOB (11743442_s_at) / RFU RGS16 (11720943_a_at) / Fold change /veh RGS16 (11720943_a_at) / RFU RGS16 (11720944_at) / Fold change /veh RGS16 (11720944_at) / RFU, VPS4B / Fold change vs veh, VPS4B / RFU, CREB1 / Fold change vs veh, CREB1 / RFU, DNAJC13 / Fold change vs veh, DNAJC13 / RFU, GNAQ / Fold change vs veh, GNAQ / RFU, CDK5R1 / Fold change vs veh, CDK5R1 / RFU, ZRANB3 / Fold change vs veh, ZRANB3 / RFU, CUL4A / Fold change vs veh, CUL4A / RFU, CCNY / Fold change vs veh, CCNY / RFU, UFL1 / Fold change vs veh, UFL1 / RFU, COG3 / Fold change vs veh, COG3 / RFU, DIAPH2 / Fold change vs veh, DIAPH2 / RFU, SKA2 / Fold change vs veh, SKA2 / RFU, AFF3 / Fold change vs veh, AFF3 / RFU, LMF1 / Fold change vs veh, LMF1 / RFU, IPO11 / Fold change vs veh, IPO11 / RFU, DFFB / Fold change vs veh, DFFB / RFU, FOXP1 / Fold change vs veh, FOXP1 / RFU, CARD8 / Fold change vs veh, CARD8 / RFU, STRN3 / Fold change vs veh, STRN3 / RFU, ADK / Fold change vs veh, ADK / RFU, RASSF2 / Fold change vs veh, RASSF2 / RFU, WIPF1 / Fold change vs veh, WIPF1 / RFU, LARP1B / Fold change vs veh, LARP1B / RFU, RASA1 / Fold change vs veh, RASA1 / RFU, RB1 / Fold change vs veh, RB1 / RFU, PPFIA1 / Fold change vs veh, PPFIA1 / RFU, MAT2A / Fold change vs veh, MAT2A / RFU, CCT5 / Fold change vs veh, CCT5 / RFU, WDR92 / Fold change vs veh, WDR92 / RFU, CUX1 / Fold change vs veh, CUX1 / RFU, TTC7A / Fold change vs veh, TTC7A / RFU, TMEM135 / Fold change vs veh, TMEM135 / RFU, DEPTOR / Fold change vs veh, DEPTOR / RFU, CPM / Fold change vs veh, CPM / RFU, DNAJB6 / Fold change vs veh, DNAJB6 / RFU, CACNA2D3 / Fold change vs veh, CACNA2D3 / RFU, DTX4 / Fold change vs veh, DTX4 / RFU, TFCP2 / Fold change vs veh, TFCP2 / RFU, GMCL1 /// GMCL1P1 / Fold change vs veh, GMCL1 /// GMCL1P1 / RFU, AEBP2 / Fold change vs veh, AEBP2 / RFU, SNHG1 /// SNORD22 /// SNORD25 /// SNORD26 /// SNORD27 /// SNORD28 /// SNORD29 /// SNORD31 / Fold change vs veh, SNHG1 /// SNORD22 /// SNORD25 /// SNORD26 /// SNORD27 /// SNORD28 /// SNORD29 /// SNORD31 / Fold change (Aza/veh), C12orf56 (ProbeSet 11735607_a_at) / Fold change (ACY-1035/veh), C12orf56 (ProbeSet 11735607_a_at) / Fold change (Aza/veh), FGFR1OP (ProbeSet 11751329_s_at) / Fold change (ACY-1035/veh), FGFR1OP (ProbeSet 11751329_s_at) / Fold change (Aza/veh), VPS36 (ProbeSet 11739960_a_at) / Fold change (ACY-1035/veh), VPS36 (ProbeSet 11739960_a_at) / RFU SYPL1 (11715823_x_at) / Fold change /veh SYPL1 (11715823_x_at) / RFU IGFBP7 (11715501_s_at) / Fold change /veh IGFBP7 (11715501_s_at) / RFU REEP3 (11722064_at) / Fold change /veh REEP3 (11722064_at) / RFU IGLL1 (11728026_x_at) / Fold change /veh IGLL1 (11728026_x_at): dose or concentration left out as unconfirmed
Conditions: ProbeSet 11720270_a_at; LIST B

## Nc1ncn([C@@H]2O[C@H](CO)[C@@H](O)[C@H]2O)c(=O)n1 [azacitidine]
  RFU, IBTK: 397.77 RFU
